# Data: patent US20090093460A1, “Compositions” (AstraZeneca AB, priority 2003, published 2009)
# System: rats
# Test: Geller-Seifter conflict test
# Format: in vivo, rat
# Protocol: Anxiolytic activity of 11-piperazin-1-yldibenzo[b,f][1,4]thiazepine was tested in rats according to the Geller-Seifter conflict test. Efficacy results are presented in Table 1 and plasma levels in satellite exposure animals at 0.25 hours after administration are provided in Table 2.
# Subjects: 30 Male Long Evans rats were used. Subjects weighed 350-450 g at the time of testing, and were food restricted to 85% of free feeding weight by post session feeding with approximately 15 g of standard rat chow per day. All animals had free access to water except during experimental testing. Subjects were individually housed throughout the course of the experiment under a 12 hour light/dark cycle.
# Apparatus: Standard 2-lever operant chambers were used (Med Associates). The chambers were fitted with two retractable response levers and a stimulus lamp over each of the 2 levers. A pellet food dispenser delivered 45 mg food pellets, (Bio Serv) to a cup located inside of the chamber below and between the 2 response levers. A lamp at the top and back of the chamber served as houselights. […] All events in the chambers were controlled and monitored by a microprocessor. […]
# Several doses were tested on a given day in different subjects. […] The dependent variables recorded were the rate of responding in unpunished and punished components (total responses/total time under the component), the number of shocks delivered. […]
structure (smiles),measurement,setting,value
"c1ccc2c(c1)N=C(N1CCNCC1)c1ccccc1S2 [11-piperazin-1-yldibenzo[b,f][1,4]thiazepine]",rates of responding in the punished component,"doses of 2, 5, and 10 mg/kg s.c.",Significant increases
same,Inactive dose,"rats, 15 minute pre-treatment",1 mg/kg s.c.
